This is an account of results in patent US12310971B2, “Coffee bean compositions comprising paraxanthine and methods for their production” (RAREBIRD, INC., priority 2021, dated 2025).

A short description of data set [1]: Solubility of paraxanthine in infusion solvents as a function of pH. Format: physicochemical. The settings on record: dependence on pH. From the text: Thus, performing the infusing step at a pH of 7 or higher can be useful to increase the paraxanthine content of the finished paraxanthine coffee. In various embodiments, the pH of the infusion mixture is greater than pH 7. In some embodiments, the pH of the infusion mixture is greater than pH 8. In some embodiments, the pH of the infusion mixture is greater than 8.5. In some embodiments, the pH of the infusion mixture is greater than 9.0. In some embodiments, the pH of the infusion mixture is greater than 9.5.

Data set [2] in a line: Paraxanthine concentration in filtered aqueous stock infusion solution. Format: physicochemical. The settings on record: 18 grams of paraxanthine mixed in 1 liter of water at 85° C., filtered to remove undissolved paraxanthine. The protocol: In the first, infusing, step, the three batches of green coffee beans were individually infused with paraxanthine dissolved in water, the infusion solvent, to produce green solvated paraxanthine coffee beans. A stock solution of infusion solvent comprising paraxanthine was generated by mixing 18 grams of paraxanthine in 1 liter of water at 85° C.; the solution was then filtered to remove any residual, undissolved paraxanthine. The paraxanthine concentration in the stock solution was approximately 74 mM. Infusions were performed in 250-mL glass jars using 60 grams of green coffee beans and 120 grams of the stock infusion solution. The mixtures were incubated at 85° C. for 1 hour with periodic mixing. Subsequently, the green solvated paraxanthine coffee beans were separated using a colander, rinsed, and residual solvent removed from the surface of the beans. The mass of the infused beans was measured and compared to the mass of the original green coffee beans to determine the infusion solvent content. The moisture contents for batches 1, 2, and 3 were 45.1%, 46.9%, and 44.8%, respectively.

The conditions of data set [3]: in humans; cited from earlier work.

Turning to `Cn1c(=O)[nH]c2ncn(C)c2c1=O` [paraxanthine], the “solubility of paraxanthine in the infusion solvents” value in data set [1] was “increases with increasing pH”. Also, the “paraxanthine concentration in the stock solution” value in data set [2] is recorded as “approximately 74 mM”.
The half-life is the time in which the quantity being followed falls by half. Regarding `Cn1c(=O)c2c(ncn2C)n(C)c1=O` [caffeine], the half-life in data set [3] was 4.1 ± 0.8 h.
